Source: US20240398783A1, “Compounds and Pharmaceutical Compositions Comprising Inhibitors of Amyloid Peptide Interactions with Glycosaminoglycans, Methods of Treatment and Use Thereof” (Gismo Therapeutics, Inc., priority 2021, published 2024)
Structures can show the parent of a compound that is named as a salt. Where two headings read alike, the source gives them in different places.

What was measured:
[1] = biological target: Amyloid-beta(1-40) binding to heparin (HS-GAG) (Homo sapiens, UniProt P05067); assay: Inhibition of Amyloid-beta(1-40) binding to immobilized heparin-BSA (ELISA); parameters: species or system porcine; details: for IC50: co-incubation on heparin-BSA plates; for inhibition at 30 µM: read-out: Abeta40/Heparin Activity (% inhibition class)
Method: (§1) Porcine intestinal mucosa heparin conjugated to Bovine Serum Albumin (Heparin-BSA) was prepared as described (Najjam, S. et al. 1997, Cytokine 12, 1013-1022). Heparin is a sulfated HS-GAG and is commonly used as a HS-GAG in biochemical and binding assays (Lindahl, U. and Kjellen, L. (2013) ibid). Heparin-BSA at 0.01 mg/ml in Phosphate Buffered Saline (PBS; pH 7.4) was added to a 96 well polystyrene ELISA plate (NUNC Cat. No. 449824; 100 μl per well) and incubated Over Night (ON) at 4 degrees Celsius. For negative controls, ELISA plates were coated with BSA instead of Heparin-BSA, using the same procedure. Following the incubation, the plate was washed consecutively, by immersion, with de-ionized water and PBS (pH 7.4). The ELISA plate was then blocked with nonfat milk (2%, 200 μl per well) for 2 hours at Room Temperature (RT) with gentle shaking. Following blocking, the plate was washed with de-ionized water then PBS (pH 7.4). GBAPs were dissolved and diluted in PBS (pH 6.5, supplemented with 0.1% BSA) at desired concentrations, added to the ELISA plates containing immobilized Heparin-BSA (100 μl per well) and incubated for 2 hours at RT with gentle shaking. Following incubation, the plate was washed with de-ionized water and three times with PBS (pH 6.5) plus Tween. Bound GBAP was detected by a monoclonal antibody specific for that GBAP, followed by incubation with secondary antibody conjugated to horseradish peroxidase (HRP). Antibody was diluted in PBS (pH 6.5 supplemented with 1% BSA). Following each incubation with antibody, the plate was washed with de-ionized water and three times with PBS (pH 6.5) wash buffer containing 0.1% Tween. The peroxidase substrate chromogen, TMB (Dako Cat. No. S1599) was added (100 μl per well) to the ELISA plate and incubated at room temperature. After 5 minutes ELISA Stop Solution (hydrochloric acid 1N, sulfuric acid 3N) was added (100 μl per well) to stop the peroxidase catalyzed colorimetric reaction. The Optical Density of the samples was measured at 450 nm using an ELISA plate reader (BioTek Synergy H1). Following color development, the % inhibition compared to control (BSA-coated plates) was determined. IC-50s were calculated using GraphPad Prism software.
The assay was performed as described in Example 43, with the following modifications. Following to coating the plates with Heparin-BSA, plates were washed as described. The compounds were dissolved in DMSO at 10 mM final concentration and further diluted prior to assay. DMSO concentration in the screening well was up to 2%. Individual compounds were co-incubated with Beta-amyloid peptides on plates containing immobilized heparin. Beta-amyloid (1-42) was purchased from rPeptide (Cat. No. A1163) and used to prepare oligomers according to Stine et al., 2003 (J Biol Chem. 278(13):11612-22) as follows. 1,1,1,3,3,3-Hexafluoro-2-propanol- (HFIP; Sigma Cat. No. 105228)-treated Beta amyloid (1-42) was dissolved in dry DMSO (Sigma Cat. No. D2650) to 5 mM concentration. Dissolved Beta amyloid (1-42) was then diluted to 100 μM in ice-cold cell culture medium (phenol red-free Ham's F-12; Caisson Labs, Cat. No. HFL05), followed immediately by vortexing for 30 seconds, and incubating at 4 degrees Celsius for 24 h. Resulting Beta amyloid (1-42) oligomers were centrifuged at 12,000 rpm for 10 min at 4 degree Celsius to remove aggregates. Oligomers were then quickly frozen and kept in aliquots at −80 degrees Celsius. Beta-amyloid (1-40) from rPeptide (Cat No. A1153) was dissolved in DMSO, quickly frozen and kept in aliquots at −80 degrees Celsius. Beta-amyloid (1-42) oligomers or Beta-amyloid (1-40) diluted in PBS (pH 6.5, supplemented with BSA, 0.1%) were added to the ELISA plate (100 μl per well) and incubated for 2 hours at RT with gentle shaking. Following the incubation, the plate was washed with de-ionized water and three times with PBS (pH 6.5) plus Tween. […]

[2] = biological target: T1, SAA binding to heparin (HS-GAG) (Homo sapiens, UniProt P0DJI8); assay: Inhibition of SAA binding to immobilized heparin-BSA (ELISA); parameters: species or system porcine
T1 sequence (P0DJI8 19-122): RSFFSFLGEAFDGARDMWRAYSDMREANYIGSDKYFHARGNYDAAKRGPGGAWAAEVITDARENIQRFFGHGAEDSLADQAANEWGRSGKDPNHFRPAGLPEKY
Method: as §1
The assay was performed as described in Example 43, with the following modifications. Following to coating the plates with Heparin-BSA, plates were washed as described. The compounds were dissolved in DMSO at 10 mM final concentration and further diluted prior to assay. DMSO concentration in the screening well was up to 2%. Individual compounds were co-incubated with SAA on plates containing immobilized heparin. Serum amyloid A (SAA) from PeProtech (NJ, USA, Cat. No. 300-53) was dissolved in DMSO, quickly frozen and kept in aliquots at −80 degrees Celsius. SAA dissolved in Tris buffer (pH 6.5, supplemented with BSA, 0.1%) was added to the ELISA plate (100 μl per well) and incubated for 2 hours at RT with gentle shaking. Following the incubation, the plate was washed with de-ionized water and three times with Tris Buffered Saline (TBS, pH 6.5) plus Tween. Bound SAA was detected by Anti-SAA Monoclonal Antibody (R&D System Cat. No. MAB30192), followed by secondary anti-IgG antibody conjugated to HRP (R&D System, Cat. No. HAF007). Antibody was diluted in TBS antibody buffer (pH6.5 supplemented with 1% BSA). Following each incubation with antibody, the plate was washed with de-ionized water and three times with TBS (pH6.5) wash buffer containing 0.1% Tween. Following to color development with TMB, as described in Example 43, the Optical Density of the samples was measured at 450 nm using an ELISA plate reader. Following color development, the % inhibition compared to control (no compound, DMSO control) for every compound was determined.
As described in Example 43, Heparin in the form of Heparin-BSA conjugate is used as a source of HS-GAG. For each compound IC-50 value in SAA—heparin-BSA binding assay is shown in μM (micromolar). […]

[3] = Abeta40/Heparin Activity (IC-50), Abeta(1-40)
[4] = read-out: Serum Amyloid A/Heparin Activity (IC-50); SAA, heparin-BSA
[5] = Abeta(1-40), read-out: Abeta40/Heparin Activity (IC-50)
[6] = SAA, heparin-BSA; read-out: Serum Amyloid A/Heparin Activity (IC-50)

Chain of Amyloid-beta(1-40) binding to heparin (HS-GAG) (P05067 672-711): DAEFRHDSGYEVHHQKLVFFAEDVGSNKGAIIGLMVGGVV

Compound | IC50 [1, 3] | IC50 [2, 4] | IC50 [1, 5] | IC50 [2, 6] | other results
C/C(=N\Nc1ncnc2cc(Cl)ccc12)c1ccc(-n2cnc(C)c2C)nc1 [Compound 16, 7-chloro-4-(2-(1-(6-(4,5-dimethyl-1H-imidazol-1-yl)pyridin-3-yl)ethylidene)hydrazineyl)quinazoline phosphate] | 4.37 µM | 13.9 µM | – | – | –
Fc1cc(/C=N/Nc2ccnc3cc(Cl)ccc23)ccc1-n1ccnc1 [Compound 35, (E)-7-chloro-4-(2-(3-fluoro-4-(1H-imidazol-1-yl)benzylidene)hydrazineyl)quinoline hydrochloride] | – | 31.8 µM | – | – | inhibition at 30 µM [1]: < 30%
C[n+]1ccc(/C=N\Nc2ccnc3ccccc23)cc1 [Compound 9, (Z)-1-methyl-4-((2-(quinolin-4-yl)hydrazono)methyl)pyridin-1-ium iodide] | – | – | – | – | inhibition at 30 µM ([1]; 30 μM compound, Abeta(1-40), heparin-BSA): < 30%; inhibition at 30 µM ([2]; 30 μM compound; SAA, heparin-BSA; read-out: Serum Amyloid A/Heparin Activity (% inhibition class)): < 30%
Clc1ccc2c(N/N=C/c3ccc(-n4ccnc4)nc3)ccnc2c1 [Compound 14, (E)-4-(2-((6-(1H-imidazol-1-yl)pyridin-3-yl)methylene)hydrazineyl)-7-chloroquinoline hydrochloride] | 7.77 µM | 7.67 µM | – | – | –
C/C(=N\Nc1ncnc2cc(Cl)ccc12)c1ccc(-n2cc(C)nc2C)nc1 [Compound 18, (E)-7-chloro-4-(2-(1-(6-(2,4-dimethyl-1H-imidazol-1-yl)pyridin-3-yl)ethylidene)hydrazineyl)quinazoline phosphoric acid salt] | – | – | 3.31 µM | 22.2 µM | –
Cc1cc(-n2ccnc2)ccc1/C=N/Nc1ccnc2cc(Cl)ccc12 [Compound 1, (E)-4-((E)-(4-(1H-imidazol-1-yl)-2-methylbenzylidene)hydrazono)-7-chloro-1,4-dihydroquinoline] | – | – | 3.67 µM | 8.16 µM | –
